The text below walks through data of PubChem BioAssay (NCI).

Holding throughout (experiment): inhibition of tumour cell growth, NCI panel, 48 h
Experiment [1] concerns HS 578T breast.
For experiment [2], the system named is KM12 colon.
Experiment [3] deals with NCI-H460 lung.
Experiment [4] relates to OVCAR-5 ovarian.
Experiment [5] has as its system RXF 393 renal.
Experiment [6] has as its system SK-MEL-28 melanoma.
Experiment [7] concerns SN12C renal.
The test system of experiment [8] is TK-10 renal.
In experiment [9] the test system is RPMI-8226 leukemia.
The subject of experiment [10] is SNB-19 CNS.

Several values for one entry are separate records, joined by “and”; a condition that tells them apart may be missing. Equal values may be shown once.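 Tested at 5 concentrations; 48 h exposure; 96-well plates; endpoints linearly interpolated, else capped at highest concentration. The concentration for 50% growth inhibition is given as GI50. TGI denotes the concentration required for complete inhibition of growth.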 A value given as a limit tells only on which side of the number the result lay.

For `COc1ccc2c(c1)C(=O)c1c-2n(CCCN)c(=O)c2cc(OC)c(OC)cc12`, the GI50 in experiment [1] was 2.2 µM; in experiment [2], 0.169 µM; in experiment [3], under 0.01 µM; in [4] it was 1.59 µM; in experiment [5] it was 0.399 µM; in experiment [6] it was 8.19 µM. Also, the GI50 in [7] is 0.112 µM; in experiment [8], 1.45 µM. Besides, the TGI in [1] is 4.81 µM; in experiment [2] it was 0.627 µM; in experiment [3], over 100 µM; in experiment [4], 3.01 µM; in [5] it was 1.88 µM; in [6], 29.1 µM. The figures for the TGI in experiment [7] and in experiment [8] were 1.51 µM and 2.99 µM, respectively.

In the case of `COc1ccc2c(c1)N(CCO)C1=C(C(=O)OC1)C2c1ccccc1` (centres undefined), the GI50 in experiment [1] was 1.39 µM; in experiment [2], 1.48 µM; in experiment [3], 1.77 µM; in [4] it was 3.77 µM; in experiment [9] it was 1.78 µM; in [6], 2.98 µM. The GI50 in experiment [7] was 3.7 µM; in [10] it was 2.32 µM; in experiment [8], 2.11 µM. Further, the TGI in experiment [1] is 4.99 µM; in [2], 12 µM; in [3] it was 12.5 µM; in experiment [4], over 50 µM; in experiment [9], over 50 µM; in experiment [6], over 50 µM. Further, the TGI in experiment [7], in experiment [10] and in experiment [8] was over 50 µM throughout.

`O=C(O)CCSC(=S)Nc1cccc(F)c1`: the TGI in [2] was over 100 µM; in [3] it was over 100 µM; in experiment [4], over 100 µM; in experiment [9], over 100 µM; in [5] it was 99.2 µM; in [6], 83.1 µM. The TGI in experiment [7], in experiment [10] and in experiment [8] was over 100 µM throughout.

For `O=C(O)CCSC(=O)Nc1ccccc1Cl`, the TGI in experiment [2], in [3], in [4], in experiment [9], in experiment [5] and in [6] was over 100 µM each time. The TGI in experiment [7], in [10] and in experiment [8] was over 100 µM in each case.

For the compound `COc1ccc(/C=C\c2cc(OC)c(OC)c(OC)c2)c(O)c1O`, the GI50 is 0.0568 µM in experiment [2]; 0.106 µM in [3]; 43.7 µM in experiment [4]; 0.0635 µM in [9]; < 0.0322 µM and 0.111 µM in experiment [5]; 0.655 µM in experiment [6]. In addition, the GI50 in [7] was 0.296 µM; in [10], 0.0517 µM and 0.05 µM. The TGI was 7.42 µM and 25.4 µM in [2]; 9.22 µM and 4.42 µM in [3]; 51.8 µM and 96.4 µM in experiment [4]; 20.9 µM and 9.14 µM in experiment [9]; 36 µM and 6.31 µM in [5]; 49.6 µM and 60.2 µM in experiment [6]. The TGI in experiment [7] is 25.9 µM and 28.4 µM; in experiment [10] it was 85.3 µM; in experiment [8], 55.8 µM.

As for `C=C1C(=O)OC2C1C(OC(=O)/C(C)=C\C)CC1(CO1)C1C(O)C=C(C)C21O` (centres undefined), the TGI came to 24.4 µM in experiment [2]; 29.4 µM in experiment [3]; 34.3 µM in [4]; 22.2 µM in [9]; 7.09 µM in experiment [5]; 13.2 µM in experiment [6]. For the same compound, the TGI was found to be 14.5 µM in experiment [7], 35.2 µM in experiment [10] and 9.35 µM in [8].

For the compound `COC(=O)C(=O)C(C(=O)C=C(C)C)C(=O)C(=O)Nc1nc2ccc([N+](=O)[O-])cc2s1` (centres undefined), the TGI in experiment [2] was over 100 µM; in experiment [3] it was over 100 µM; in experiment [4], over 100 µM; in experiment [9], over 100 µM; in experiment [5], 45.2 µM; in experiment [6], over 100 µM. Besides, the TGI in experiment [7], in experiment [10] and in experiment [8] was over 100 µM in each case.

On to `COC(=O)c1ccc2c(c1)c1c(C)c3ccncc3c(C)c1n2C`, for which the GI50 was 0.561 µM in [1]; 0.262 µM in experiment [2]; 0.296 µM in experiment [3]; 0.718 µM in experiment [4]; 0.259 µM in [9]; 0.441 µM in experiment [6]. Further, the figures for the GI50 in [7], in experiment [10] and in [8] were 0.214 µM, 0.206 µM and 0.89 µM, respectively. Moreover, the TGI in experiment [1] was over 100 µM; in experiment [2], over 100 µM; in experiment [3], 12.6 µM; in [4], over 100 µM; in [9], 25.1 µM; in experiment [6] it was 50.1 µM. The TGI in experiment [7] was over 100 µM; in experiment [10], over 100 µM; in experiment [8], 70.3 µM.

Regarding `CC1=NN(C(=O)c2ccc(Cl)cc2)C(=O)/C1=C/c1ccco1`, the TGI in [2], in [3], in experiment [4], in [9], in experiment [5] and in [6] was over 100 µM throughout. Moreover, the TGI in experiment [7], in [10] and in experiment [8] was over 100 µM throughout.
